# Laboratory results published in patent publication US7345065B2, “Methods and compositions for alleviating pain” (Allergan, Inc., priority 2002, dated 2008).
# Entries after “also recorded” stand apart in the source; their conditions may differ.
# Tests used:
# [1] = tested on: sulprostone-sensitized α-2A knockout mice; assay: Sulprostone sensitized pain (allodynia), α-2A knockout mice; type: in vivo, mouse
# Procedure: (§1) In brief, mice were divided into groups of 5-6 animals. Control mice were administered 5 ul DMSO while treated animals were injected with 5 ul DMSO containing various doses of the indicated agent. After intrathecal injection, each mouse was placed in an individual 13×8.5×13 cm Plexiglass enclosure with wood chips on the floor for observation. Allodynia was assessed once every five minutes over a 50 minute time period, with response recorded eight times in the 15 to 50 minute time frame. Allodynia was assessed by light stroking of the flank of the mice with a small paintbrush and ranked as follows: 0, no response; 1, mild squeaking with attempts to move away from the stroking probe; and 2, vigorous squeaking evoked by the stroking probe, biting at the probe and strong efforts to escape. The eight scores for each animal were added together, and the mean for the group determined to give an average total score.
# [2] = tested on: sulprostone-sensitized wild type mice; assay: Sulprostone sensitized pain (allodynia), wild type mice; type: in vivo, mouse
# Procedure: Non-specific α-adrenergic agonists were assayed in α-2A receptor deficient (“knockout”) mice (Hein et al., supra, 1999) using a mouse model of sulprostone sensitized pain in which allodynia is evoked by intrathecal administration of a selective prostaglandin E2 receptor agonist to conscious mice essentially as described in Minami et al., Pain 57:217-223 (1994). In this model, the pain response to stroking the flank with a paint brush is scored eight times over a 35 minute period starting 15 minutes following spinal administration of sulprostone and intrathecal or intraperitoneal administration of drug or control vehicle. Sulprostone elicits a “pain” score of 12-13 on a 16-point scale.
# as §1, with “Assays for allodynia in wild type and α-2A knockout mice were performed essentially according to the method of Yaksh and Harty, J. Pharmacology Exp. Ther. 244: 501-507 (1998). In” for “In”
# Chung model rats = assay: Chung rat nerve ligation model, tactile allodynia reversal (Von Frey); type: in vivo; settings: for long-term pain alleviation after extended dosing: gabapentin 3 mg/kg oral TID three days, amitriptyline 0.1, brimonidine 0.04, Compound 1 0.1 mg/kg/hour minipump seven days; for analgesia when co-administered with Compound 13 at 0.2 mg/kg/day: osmotic minipump; for analgesia, agonist given alone: peripheral (intraperitoneal) administration, clonidine 100 μg/kg, Compound 3 1 to 1000 μg/kg; for analgesia, agonist given alone / analgesia when co-administered with 0.3 μg/kg Compound 13: Compound 2 100 μg/kg; for analgesia when co-administered with 0.3 μg/kg Compound 13: intraperitoneal, clonidine 30 μg/kg; for Peak allodynia reversal (dose): intraperitoneal injection, dose (3-300 μg/kg); for allodynia reversal, enantiomers versus parent racemate: intraperitoneal administration, Chung model rats
# Procedure: The Chung rat nerve ligation model is a well accepted model of peripheral neuropathic pain. In the Chung model, partial ligation of left spinal nerves L-5 and L-6 produces a long-lasting hypersensitivity to light touch on the affected left foot. The hypersensitivity is similar to pain experienced by humans with the neuropathic condition of causalgia (Kim and Chung, Pain 50:355-363 (1992)).
# Chung rat surgeries of about 20 minutes duration were performed essentially as follows. Male Sprague-Dawley rats weighing 100 to 120 grams were anesthetized with isofluorane. After shaving and preparing the surgical site with betadine, an incision was made from thoracic vertebra XIII down toward the sacrum, and muscle separated from spinal vertebra (left side) at the L4-S2 levels. The L6 vertebra were located, and the transverse process carefully removed with a small rongeur to visually identify the L4-L6 spinal nerves. L5 and L6 spinal nerves were isolated and tightly ligated with 6-0 silk thread; the wound was sutured after complete hemostasis was confirmed. A small amount of antibiotic ointment was applied to the incised area before transferring the animals to a plastic recovery cage under a regulated heat-temperature lamp. Animals were not treated with any topical or local anesthetics post-operatively.
# Assessment of pain in Chung model rats was performed by applying a light tactile stimulus (Von Frey hair) to the affected surgical paw as follows. A 50% pain threshold was established by applying the Von Frey hair in an up-and-down manner to the plantar surface of the surgical paw with just enough force to bend them. A positive response was recorded if the paw was withdrawn sharply. The 50% paw withdrawal threshold was determined using the method of Dixon et al., Ann. Rev. Pharmacol. Toxicol. 20:441-462 (1980). The post-drug threshold was compared to the pre-drug threshold, and the precent reversal of tactile sensitivity calculated based on a normal threshold of 15.1 grams. The results were expressed as % allodynia reversal, reflecting the percentage reversal of pain threshold relative to a normal rat (100%).
# Chung surgeries were performed, and pain assessed as described above. Drugs administered via osmotic minipump were delivered as follows. ALZET (Cupertino, Calif.) minipumps (Model #1007D) were implanted subcutaneously on the rats' back between the shoulder blades. Pumps were filled with test solution prior to surgery, which was performed with aseptic procedures and sterilized surgical instruments. After anesthetization with isoflorane and midline incision between the shoulder blades through the muscle, a subcutaneous pocket was exposed. The minipump was inserted into the exposed pocket, before stapling the wounds closed and allowing animals to recover under a warming light.
# ALZET osmotic minipumps (model 1007D) hold a total volume of 100 μl and delivered drug at the set rat of 0.5 μl per hour the indicated time period. Drugs were administered at the indicated rate, typically 100 μg/hr/kg, dissolved in 50% DMSO, with the concentration of drug in the pump varied depending on animal weight. […]
# Male Sprague-Dawley rats = assay: Sedative effects in rats (total activity, digicom analyzer chamber); type: in vivo, rat
# Procedure: (§2) Sedative effects were analyzed by assessing exploratory behavior in a darkened chamber as follows. Mice were weighed, and test compound administered by intrathecal injection in a volume of 5 μl or by intraperitoneal injection in 1 ml/kg volume at the indicated dose. At predetermined time points corresponding with analgesia measurements 5 to 30 minutes following the injection, the animal's activity was determined automatically by placing the mouse in a digicom analyzer chamber (Omnitech Electronic; Columbus, Ohio). The digicom analyzer chamber contains photocell beams criss-crossing the box that are broken as the animal moves around; the chamber was modified for mice by raising the level of the floor. Computer analysis of total animal movement proceeded over a 5-minute time period. Any given animal was used at most twice for this protocol, as learned behavior can affect the data. All animals received at least two weeks rest between studies.
# Male Sprague-Dawley rats that were not subject to surgery were used for assessment of sedative effects. Rats were weighed and compound administered by intravenous or intraperitoneal injection or given orally at the indicated dose. At a predetermined time point 5 to 30 minutes following injection, the animal's activity was determined automatically by placing the rat in a digicom analyzer chamber (Omnitech Electronic). Total activity was analyzed as described above.
# [3] = tested on: α-2B heterozygous (−/+) and homozygous (−/−) knockout mice; assay: Sulprostone sensitized pain (allodynia), α-2B knockout mice; type: in vivo, mouse; settings: intraperitoneal; heterozygous and homozygous α-2B knockout; clonidine 500 ug/kg, Compound 3 100 ug/kg
# mice = assay: Sedative effects in mice (exploratory activity, digicom analyzer chamber); type: in vivo, mouse; settings: intraperitoneal, wild type mice; clonidine 500 ug/kg, Compound 3 100 ug/kg
# Procedure: as §2
# [4] = intraperitoneal, α-2A knockout mice (Compound 1 30 μg/kg; Compound 2 and PAC 100 μg/kg)
# [5] = intrathecal injection (Compound 1: 1 μg), α-2A knockout mice
# [6] = intraperitoneal injection, wild type mice (Compound 1 30 μg/kg; Compound 2 100 μg/kg)
# [7] = intrathecal injection (Compound 1: 1 μg), wild type mice
# [8] = subcutaneous osmotic minipump 0.1 mg/kg/hour, seven days
# [9] = rauwolscine 0.3 μg/kg i.p., Compound 8 by osmotic minipump
smiles,measurement,setting,value
Cc1c(N=C2NCCN2)ccc2c1NCCO2 [Compound 1],analgesia,[1]; [4],significant analgesia without sedation
same,analgesia,[1]; [5],did not produce analgesia
same,analgesia,[2]; [6],failed to produce analgesia separable from sedation
same,analgesia,[2]; [7],significant analgesia separable from sedation
same,long-term pain alleviation after extended dosing,Chung model rats,the allodynia returned completely prior to or following cessation of treatment
same,analgesia when co-administered with Compound 13 at 0.2 mg/kg/day,Chung model rats; Chung rats,"greater analgesia was observed during the dosing period, and this analgesic effect continued after completion of drug administration"
same,"analgesia, agonist given alone",Chung model rats; Chung rats,neither compound was significantly analgesic at non-sedating doses
CC1=CCCC1Cc1c[nH]c(=S)[nH]1 (stereo not drawn) [Compound 2],sedative effects,Male Sprague-Dawley rats; 100 μg/kg Compound 2 co-administered with 0.3 μg/kg Compound 13,no significant sedative effects
same,analgesia,[1]; [4],fully analgesic
same,analgesia,[2]; [6],not analgesic
same,analgesia when co-administered with 0.3 μg/kg Compound 13,Chung model rats; Chung rats,significant analgesia
same,"analgesia, agonist given alone",Chung model rats; Chung rats,not analgesic
Clc1cccc(CNC2=NCCS2)c1Cl [Compound 5],Peak allodynia reversal (dose),Chung model rats,77% +/− 8.3%
Fc1c(Cl)cccc1CNC1=NCCO1 [Compound 6],Peak allodynia reversal (dose),Chung model rats,92% +/− 5.2%
Cc1cccc(CNC(=S)NCCO)c1F [Compound 7],Peak allodynia reversal (dose),Chung model rats,60% +/− 8.0%
CCC1=CC(Cc2c[nH]cn2)CCC1 (stereo not drawn) [Compound 9],allodynia alleviated during the period of drug treatment,Chung model rats; [8],60-80%
same,persistence of analgesic effects after treatment,Chung model rats; [8],continued for over a month after treatment was concluded
O=C1c2ccccc2CCC1Cc1c[nH]c(=S)[nH]1 (stereo not drawn) [Compound 10],"allodynia reversal, enantiomers versus parent racemate",Chung model rats,allodynia reversal was obtained; also recorded: as effective as parent racemic mixture in relieving pain
O=c1[nH]cc(C[C@H]2CCc3cc(F)ccc32)[nH]1 [Compound 12],"allodynia reversal, enantiomers versus parent racemate",Chung model rats,at least as effective as the parent compound in reducing allodynia at all doses tested
Fc1ccc(Br)c(CNC2=NCCO2)c1 [Compound 14],Peak allodynia reversal (dose),Chung model rats,77% +/− 6.2%
"Nc1cc(Cl)c(N=C2NCCN2)c(Cl)c1 [PAC, para-amino clonidine, reference compound]",analgesia,[1]; [4],analgesic
same,"analgesia, agonist given alone",Chung model rats; Chung rats,neither compound was significantly analgesic at non-sedating doses
"CN(C)CCC=C1c2ccccc2CCc2ccccc21 [amitriptyline, reference compound]",long-term pain alleviation after extended dosing,Chung model rats,the allodynia returned completely prior to or following cessation of treatment
Brc1c(NC2=NCCN2)ccc2nccnc12 [brimonidine],analgesic effect in α-2B knockout mice,[3],analgesic
same,analgesia,[1]; [4],significant analgesia without sedation
same,analgesia,[1]; [5],did not produce analgesia
same,analgesia,[2]; [6],failed to produce analgesia separable from sedation
same,analgesia,[2]; [7],significant analgesia separable from sedation
same,long-term pain alleviation after extended dosing,Chung model rats,the allodynia returned completely prior to or following cessation of treatment
same,analgesia when co-administered with Compound 13 at 0.2 mg/kg/day,Chung model rats; Chung rats,"greater analgesia was observed during the dosing period, and this analgesic effect continued after completion of drug administration"
"Clc1cccc(Cl)c1N=C1NCCN1 [clonidine, reference compound]",sedation (activity),Male Sprague-Dawley rats; clonidine 30 μg/kg intraperitoneal,reduces activity
same,sedation,Male Sprague-Dawley rats; clonidine 100 μg/kg intraperitoneal,extremely sedating
same,analgesic effect in α-2B knockout mice,[3],alleviated the analgesia in both heterozygous and homozygous α-2B knockout strains
same,concomitant sedation,mice,produced concomitant sedation
same,analgesia,[1]; [4],significant analgesia without sedation
same,analgesia,[1]; [5],did not produce analgesia
same,analgesia,[2]; [6],failed to produce analgesia separable from sedation
same,sulprostone-induced tactile allodynia,"[2]; intraperitoneal, wild type mice, clonidine 500 ug/kg, Compound 3 100 ug/kg",alleviated sulprostone-induced tactile allodynia
same,analgesia,[2]; [7],significant analgesia separable from sedation
same,analgesia when co-administered with 0.3 μg/kg Compound 13,Chung model rats; Chung rats,dramatic allodynia reversal
same,analgesia,"Chung model rats; intrathecal injection, Chung rats",significant analgesia separable from sedation
"NCC1(CC(=O)O)CCCCC1 [gabapentin, reference compound]",long-term pain alleviation after extended dosing,Chung model rats,the allodynia returned completely prior to or following cessation of treatment
"COC(=O)[C@H]1[C@H]2C[C@H]3c4[nH]c5ccccc5c4CCN3C[C@H]2CC[C@@H]1O [rauwolscine, reference compound]",effect on the analgesic effect of PAC (100 μg/kg i.p.),"[1]; rauwolscine 0.3 μg/kg intraperitoneal, α-2A knockout mice",blocked
same,"inhibition of the analgesic activity of Compound 8, fourth day of treatment",Chung model rats; [9],not on the fourth day
same,"inhibition of the analgesic activity of Compound 8, third day of treatment",Chung model rats; [9],inhibited the analgesic activity of Compound 8 when injected on the third day
